{"source": "paper PMC8086025", "about": "“A benzopyran with antiarrhythmic activity is an inhibitor of Kir3.1-containing potassium channels” (The Journal of Biological Chemistry, 2021)", "key": {"Kir3.4/4(S143F, N179D)": {"molecular_target": "T1, Kir3.4/4(S143F, N179D) (Homo sapiens, UniProt P48544, N179D/S143F)", "T1 construct": "expressed in transfected cells; host or cells: Xenopus laevis oocytes (cRNA injection)", "T1 sequence (P48544 whole entry S143F/N179D)": "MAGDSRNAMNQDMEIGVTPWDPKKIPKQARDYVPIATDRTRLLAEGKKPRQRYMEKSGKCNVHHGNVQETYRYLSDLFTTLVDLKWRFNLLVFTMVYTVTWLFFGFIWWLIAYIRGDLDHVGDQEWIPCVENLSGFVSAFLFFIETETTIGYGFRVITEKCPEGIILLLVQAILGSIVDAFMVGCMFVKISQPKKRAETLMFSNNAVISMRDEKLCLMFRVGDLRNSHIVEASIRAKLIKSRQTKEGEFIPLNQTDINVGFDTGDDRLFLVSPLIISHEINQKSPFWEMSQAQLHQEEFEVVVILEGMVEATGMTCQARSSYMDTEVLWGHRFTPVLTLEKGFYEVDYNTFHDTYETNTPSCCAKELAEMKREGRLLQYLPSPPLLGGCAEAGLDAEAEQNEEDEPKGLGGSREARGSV", "T1 sequence (P48544 whole entry, stated change not applied)": "as the sequence (P48544 whole entry S143F/N179D) above, with F143S, D179N counted along it", "assay": "TEVC in Xenopus oocytes, Kir3.4/4(S143F, N179D)", "type": "cell-based", "details": "read-out: less inhibition of Kir3.4/4(S143F, N179D) than of Kir3.4/4(S143F)", "protocol": "X. laevis oocytes were isolated and microinjected as previously described ([6]). Human Kir3.1, mouse Kir3.2, and human Kir3.4 DNA constructs were used for electrophysiology experiments. All cRNA constructs were injected in the amount of 2 ng per oocyte. Injected oocytes were incubated for 2 to 3 days at 18 °C to allow for expression. Whole-cell oocyte currents were then measured using a GeneClamp 500 amplifier (Axon Instruments). Microelectrodes had resistances of 0.5 to 1 megohm using a 3M KCl solution in 1.4% agarose. Oocytes were perfused with a low K^+ (LK) solution ND96 (2 mM KCl, 96 mM NaCl, 1 mM MgCl2, 1.8 mM CaCl2, 5 mM HEPES-Na) to establish a baseline for the recordings. Basal current was measured in a high potassium (HK) solution ND96K (96 mM KCl, 10 mM HEPES-K, 1 mM MgCl2, 1.8 mM CaCl2). To block the current, the oocyte chamber was perfused with 4 mM BaCl2 in ND96K. Only the Barium-sensitive current was used for statistical analysis. To measure the inhibitory activity of the channels, 1 μM BP-G1 in ND96K (HK) was used. Typically, oocytes were held at 0 mV (EK) and the current was monitored constantly using a ramp protocol with a command potential from −80 to +80 mV. Current amplitude was measured at the end of a 1 s sweep. All currents were analyzed when they reached steady state. Error bars in the figures represent SD (N > 4)."}, "sigma (non-selective)": {"test_system": "sigma (non-selective)", "assay": "Radioligand binding, [3H]DTG, Jurkat cells (endogenous)", "details": "listed as Benzopyran-G1"}, "Kir2.1": {"molecular_target": "T2, Kir2.1 (Homo sapiens, UniProt P63252)", "T2 construct": "host or cells: HEK293", "assay": "Cloned cardiac ion channel manual patch clamp, Kir2.1", "type": "cell-based", "details": "MPC (manual patch clamp)"}, "α1 adrenergic receptor": {"molecular_target": "α1 adrenergic receptor", "assay": "Radioligand binding, [3H]prazosin", "design": "species or system rat"}, "Kir6.1/SUR2B": {"molecular_target": "Kir6.1/SUR2B (Homo sapiens, UniProt O60706+Q15842)", "sequence (Q15842 whole entry)": "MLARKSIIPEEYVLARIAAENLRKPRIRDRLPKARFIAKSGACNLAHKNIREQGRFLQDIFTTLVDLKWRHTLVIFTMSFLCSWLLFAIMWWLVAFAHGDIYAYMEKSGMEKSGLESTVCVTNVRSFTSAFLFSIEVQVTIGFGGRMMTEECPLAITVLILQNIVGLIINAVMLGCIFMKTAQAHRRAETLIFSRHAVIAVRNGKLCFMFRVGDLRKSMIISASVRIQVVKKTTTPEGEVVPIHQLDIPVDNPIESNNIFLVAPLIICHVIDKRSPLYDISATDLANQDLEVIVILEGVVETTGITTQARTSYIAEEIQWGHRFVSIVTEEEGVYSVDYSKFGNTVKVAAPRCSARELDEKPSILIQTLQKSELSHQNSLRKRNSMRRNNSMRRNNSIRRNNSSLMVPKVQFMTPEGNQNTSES", "sequence (O60706 1-1549 isoform O60706-2)": "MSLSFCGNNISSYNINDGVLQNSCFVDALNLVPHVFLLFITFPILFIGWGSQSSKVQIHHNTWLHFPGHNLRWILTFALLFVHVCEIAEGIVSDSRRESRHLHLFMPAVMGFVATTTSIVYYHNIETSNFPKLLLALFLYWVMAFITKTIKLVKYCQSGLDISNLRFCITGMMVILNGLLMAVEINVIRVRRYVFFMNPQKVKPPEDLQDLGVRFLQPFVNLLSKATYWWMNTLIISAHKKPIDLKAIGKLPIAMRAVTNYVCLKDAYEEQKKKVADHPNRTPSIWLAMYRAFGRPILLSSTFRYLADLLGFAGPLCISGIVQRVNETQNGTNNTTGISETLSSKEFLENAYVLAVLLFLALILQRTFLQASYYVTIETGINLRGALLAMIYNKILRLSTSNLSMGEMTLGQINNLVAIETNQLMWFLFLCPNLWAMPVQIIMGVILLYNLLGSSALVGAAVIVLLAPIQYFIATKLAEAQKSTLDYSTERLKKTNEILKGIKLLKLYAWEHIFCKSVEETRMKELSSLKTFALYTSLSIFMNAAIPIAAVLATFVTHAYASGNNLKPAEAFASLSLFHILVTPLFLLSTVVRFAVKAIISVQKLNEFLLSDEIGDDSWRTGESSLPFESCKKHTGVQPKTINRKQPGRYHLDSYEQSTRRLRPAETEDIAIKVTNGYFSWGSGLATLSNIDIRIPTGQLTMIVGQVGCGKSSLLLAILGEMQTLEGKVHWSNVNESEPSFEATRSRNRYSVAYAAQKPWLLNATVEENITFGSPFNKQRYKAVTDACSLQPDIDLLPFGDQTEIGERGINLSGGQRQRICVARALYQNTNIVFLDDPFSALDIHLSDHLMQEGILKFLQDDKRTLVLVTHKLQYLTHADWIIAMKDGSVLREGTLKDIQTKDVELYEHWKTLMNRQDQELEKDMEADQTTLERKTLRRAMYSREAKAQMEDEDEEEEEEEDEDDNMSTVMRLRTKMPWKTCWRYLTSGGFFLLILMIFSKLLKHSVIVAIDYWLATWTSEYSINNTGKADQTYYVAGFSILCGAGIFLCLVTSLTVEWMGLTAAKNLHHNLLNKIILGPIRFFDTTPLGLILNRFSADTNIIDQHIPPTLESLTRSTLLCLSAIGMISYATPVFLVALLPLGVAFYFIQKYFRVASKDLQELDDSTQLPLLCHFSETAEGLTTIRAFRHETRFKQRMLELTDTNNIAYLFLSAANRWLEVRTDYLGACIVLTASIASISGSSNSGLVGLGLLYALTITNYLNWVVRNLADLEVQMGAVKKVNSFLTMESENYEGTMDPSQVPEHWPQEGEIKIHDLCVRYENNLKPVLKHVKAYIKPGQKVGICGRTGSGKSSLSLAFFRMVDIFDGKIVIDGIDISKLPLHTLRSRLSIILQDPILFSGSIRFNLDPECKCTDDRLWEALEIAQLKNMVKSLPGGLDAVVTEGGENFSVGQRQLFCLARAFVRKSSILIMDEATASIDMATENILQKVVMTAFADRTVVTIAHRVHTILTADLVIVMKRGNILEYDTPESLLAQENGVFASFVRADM", "assay": "Cloned cardiac ion channel electrophysiology, Kir6.1/SUR2B", "type": "cell-based", "protocol": "page 24: APPENDIX 4- EQUATIONS %Inhibition = (1 - IIntervention/IControl) × 100 Equation 1 - Percentage Inhibition Inhibition of current (or leak-subtracted current) was calculated from steady-state current recorded in the absence (IControl) and presence of test-article (IIntervention). […]"}, "[1]": {"assay": "Plasma protein binding, dog", "type": "in vitro ADME", "details": "read-out: Dog PPB (converted)"}, "Ca": {"test_system": "Ca", "assay": "Radioligand binding", "details": "listed as Benzopyran-G1"}, "Kir3.4": {"molecular_target": "T3, Kir3.4 (Homo sapiens, UniProt P48544)", "T3 construct": "expressed in transfected cells", "assay": "Cloned cardiac ion channel patch clamp, Kir3.4", "type": "cell-based"}, "[2]": {"molecular_target": "Kir3.4/4(N179D) channel mutant (Homo sapiens, UniProt P48544, N179D)", "sequence (P48544 whole entry, stated change not applied)": "as the sequence (P48544 whole entry S143F/N179D) above, with F143S, D179N counted along it", "sequence (P48544 whole entry N179D)": "as the sequence (P48544 whole entry S143F/N179D) above, with F143S counted along it", "type": "cell-based", "details": "1 μM, TEVC"}, "Histamine H2": {"molecular_target": "T4, Histamine H2 (Homo sapiens, UniProt P25021)", "T4 construct": "expressed in transfected cells; host or cells: CHO cells", "assay": "Radioligand binding, [125I]APT", "details": "read-out: % Specific Binding at 10 µM"}, "Kv1.7": {"molecular_target": "Kv1.7 (Homo sapiens, UniProt Q96RP8)", "sequence (Q96RP8 whole entry)": "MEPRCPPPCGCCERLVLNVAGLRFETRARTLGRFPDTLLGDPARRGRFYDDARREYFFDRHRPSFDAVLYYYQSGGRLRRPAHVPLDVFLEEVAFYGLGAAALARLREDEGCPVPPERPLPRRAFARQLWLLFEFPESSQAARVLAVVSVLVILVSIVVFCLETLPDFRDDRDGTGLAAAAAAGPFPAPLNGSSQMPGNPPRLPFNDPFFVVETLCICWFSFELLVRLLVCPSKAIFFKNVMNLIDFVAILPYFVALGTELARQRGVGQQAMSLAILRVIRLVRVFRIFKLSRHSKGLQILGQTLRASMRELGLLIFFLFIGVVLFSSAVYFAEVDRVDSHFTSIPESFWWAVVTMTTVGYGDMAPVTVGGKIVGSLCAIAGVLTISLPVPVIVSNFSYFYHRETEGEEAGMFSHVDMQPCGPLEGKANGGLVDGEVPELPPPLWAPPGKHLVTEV", "assay": "Cloned cardiac ion channel electrophysiology, Kv1.7", "type": "cell-based", "protocol": "Table S7-1. Table detailing composition (in mM) of external experimental assay solutions […]\n%Inhibition = (1 − IIntervention/IControl) × 100\nEquation 1 – Percentage Inhibition\nInhibition of current (or leak-subtracted current) was calculated from steady-state current recorded in the absence (IControl) and presence of test-article (IIntervention).\nEquation 2 – Concentration-response curve\nConcentration-response data were fitted with a sigmoidal function of the form above, where YMin and YMax represent maximum and minimum current inhibition which were constrained to 100 and 0 respectively and x is the Log[DRUG (M)] based on GraphPad Prism analysis. % inhibition was calculated as in Equation 1.\n(also on this page, place not known: […] […] + −+= − HnxLogIC MinMax Min YYYInhibition )( 50101 )(% inhi bition Log[ DRUG analysis .) […]"}, "Adenosine A1": {"molecular_target": "T5, Adenosine A1 (Homo sapiens, UniProt P30542)", "T5 construct": "expressed in transfected cells; host or cells: CHO cells", "assay": "Radioligand binding, [3H]DPCPX", "details": "read-out: % Specific Binding at 10 µM"}, "Kir3.1(E141A)/4": {"molecular_target": "T6, Kir3.1(E141A)/4 (Homo sapiens, UniProt P48544+P48549, E141A)", "T6 construct": "expressed in transfected cells; host or cells: Xenopus laevis oocytes (cRNA injection)", "T6 sequence (P48549 whole entry E141A)": "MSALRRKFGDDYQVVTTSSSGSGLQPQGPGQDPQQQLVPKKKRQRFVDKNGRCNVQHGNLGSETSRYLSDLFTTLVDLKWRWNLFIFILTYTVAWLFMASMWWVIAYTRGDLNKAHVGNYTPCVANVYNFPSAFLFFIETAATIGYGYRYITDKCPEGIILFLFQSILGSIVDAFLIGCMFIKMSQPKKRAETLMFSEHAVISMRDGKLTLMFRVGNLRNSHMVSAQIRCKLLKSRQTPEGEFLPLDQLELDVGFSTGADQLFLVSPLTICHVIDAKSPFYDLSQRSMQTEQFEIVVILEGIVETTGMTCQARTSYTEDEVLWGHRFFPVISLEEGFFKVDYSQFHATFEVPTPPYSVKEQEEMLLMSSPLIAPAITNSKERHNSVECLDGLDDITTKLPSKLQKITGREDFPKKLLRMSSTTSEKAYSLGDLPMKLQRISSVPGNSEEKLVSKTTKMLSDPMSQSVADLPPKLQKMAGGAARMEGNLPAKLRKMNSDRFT", "T6 sequence (P48544 whole entry)": "as the sequence (P48544 whole entry S143F/N179D) above, with F143S, D179N counted along it", "assay": "TEVC in Xenopus oocytes, Kir3.1(E141A)/4", "type": "cell-based", "details": "1 μM"}, "Neurokinin NK1": {"molecular_target": "T7, Neurokinin NK1 (Homo sapiens, UniProt P25103)", "T7 construct": "endogenous in cells; host or cells: U373MG uppsala", "assay": "Radioligand binding, [125I]-Substance P LYS3, U373MG uppsala", "details": "read-out: % Specific Binding at 10 µM"}}, "note": "Values joined by “and” are separate entries in the source; they are usually repeats but may differ in a detail not shown here. Equal values may be shown once.", "data": [{"compound": "Cc1cc(CO)nc2cc3c(cc12)OC(C)(C)[C@H](O)[C@H]3NCCc1ccccc1", "note": "[BP-G1, (3R,4S)-7-(hydroxymethyl)-2,2,9-trimethyl-4-(2-phenylethylamino)-3,4-dihydropyrano[2,3-g]quinolin-3-ol]", "values": [{"measurement": "inhibition at 1 µM", "setting": "Kir3.4/4(S143F, N179D)", "value": 20, "unit": "%"}, {"measurement": "% Specific Binding at 10 µM", "setting": "sigma (non-selective)", "value": "40.267% and < 50%"}, {"measurement": "IC50", "setting": "Kir2.1", "value": "> 10", "unit": "µM"}, {"measurement": "IC50", "setting": "α1 adrenergic receptor", "value": 13, "unit": "µM"}, {"measurement": "% Specific Binding at 10 µM", "setting": "α1 adrenergic receptor", "value": 55.6, "unit": "%"}, {"measurement": "% Specific Binding at 10 µM", "setting": "α1 adrenergic receptor; listed as Benzopyran-G1", "value": 55.567, "unit": "%"}, {"measurement": "Ki", "setting": "α1 adrenergic receptor; read-out: Ki, α1 (non-selective)", "value": 3.5, "unit": "µM"}, {"measurement": "IC50", "setting": "Kir6.1/SUR2B", "value": 9.9, "unit": "µM"}, {"measurement": "fraction unbound", "setting": "[1]", "value": 0.06}, {"measurement": "% Specific Binding at 10 µM", "setting": "Ca", "value": "42.600% and < 50%"}, {"measurement": "IC50", "setting": "Kir3.4", "value": 19.8, "unit": "µM"}, {"measurement": "inhibition of Kir3.4/4(N179D)", "setting": "[2]", "value": "did not inhibit"}, {"measurement": "inhibition at 10 µM", "setting": "Histamine H2", "value": 35.5, "unit": "%"}, {"measurement": "IC50", "setting": "Kv1.7", "value": 7, "unit": "µM"}, {"measurement": "inhibition at 10 µM", "setting": "Adenosine A1", "value": 38.4, "unit": "%"}, {"measurement": "current block, Kir3.1(E141A)/4", "setting": "Kir3.1(E141A)/4", "value": 25, "unit": "%"}, {"measurement": "inhibition at 10 µM", "setting": "Neurokinin NK1", "value": 42.6, "unit": "%"}]}]}
